In brackets after ≈: the same amount, converted by molar mass. Entries after “also recorded” stand apart in the source; their conditions may differ. Read-outs that look alike come from different tables or passages of the source.
Experiments:
U2OS cells [1] = assay: ICP-MS analysis of intracellular Zn(II) in U2OS cells; format: cell-based; settings: 10 μM Zn(II) and 5 μM compound, 1 hour
Protocol: Next, Applicants used inductively coupled plasma mass spectrometry (ICP-MS) to validate the imaging assay and the ionophores activity (FIG. 1F). While the intracellular Zn^II levels where similar between DMSO and chelator 1, Zn^II concentrations inside cells were 3-fold higher when Applicants co-treated ionophores 8 and 9.
U2OS cells (˜200,000) were plated in a 6-well dish. After a day, the medium was aspirated, and Zn(II) (10 μM) and compounds (5 μM) containing media (2 mL) were added to each appropriate well. Cells were harvested by first washing each well with PBS containing EDTA (100 μM, 2×2.0 mL) and subsequently adding Milli-Q water ([…] to each well and incubating for 2-4 min. A portion of the resulting cell lysate (900 μL) was collected and transferred to an Eppendorf Safe-Lock tube, snap-frozen in N2(l), and then thawed at room temperature (RT) for a total of three freeze-thaw cycles. The insoluble lysate was pelleted (10 min at 10,000 g), and the soluble protein concentration of each sample was determined using the Pierce 660 nm Protein Assay in a 96-well plate (200 μL of reagent, 14 μL of sample, bovine serum albumin standard curve). Samples were then frozen and lyophilized overnight, and the resulting white, flaky solid was taken up in concentrated nitric acid (200 μL, ultrapure for trace metal analysis, BDH Aristar) and heated at 70° C. for 1 h. A portion of each sample (142 μL) was then diluted with water (2 mL) and a terbium internal standard (Agilent 5190-8590; stock at 10,000 parts per billion [ppb] in 10% nitric acid diluted to 100 ppb in Milli-Q water for addition to samples, 2 ppb final concentration), after which the metal content of the samples was assessed by ICP-MS. […] Therefore, 1 ppb was taken to be equal to 1 μg/L, and the molarity of a particular solution was considered equal to the measured concentration of a particular ion in ppb, divided by the molecular weight of the ion, multiplied by 10-6.

[2] = UV/Vis titration, stability constant (logK) with ZnCl2; format: physicochemical; settings: UV/Vis titration with ZnCl2, TitrationFit
Source text: Applicants validated the design principles by confirming that the silyl group lowered the binding affinity and shielded the hydrophilic pocket. […] [17] […] Applicants confirmed that all compounds bound Zn^II with 1:1 stoichiometry (FIG. 12). […] Applicants superimposed the X-ray structure of the TIPS-containing Zn^II:9 complex with the literature precedented Zn^II:1 and observed significant structural distortion in the Zn^II:9 complex, which could explain the lower logK.
A solution of ligand was prepared in acetonitrile. The starting concentration was chosen to be around 0.10 mM, based on the absorption maximum of the compound. This solution (2.5 mL) was pipetted into a quartz cuvette with a 1-cm optical path length. The titration was performed by the stepwise addition of a 10-mM ZnC12 solution in acetonitrile. The absorption spectra were measured over the range of 250-800 nm. The calculation of the stability constants was accomplished using TitrationFit.1

U2OS cells [3] = assay: Zinc imaging assay (DA-ZP1 fluorescence) of ionophore activity in U2OS cells; format: cell-based; settings: U2OS cells; for ionophore activity (Zn^II transport, DA-ZP1 fluorescence): 10 μM Zn(II) and 10 μM compound, 1 hour, then DA-ZP1; for ionophore activity (DA-ZP1 fluorescence): 10 μM Zn(II) and 5 μM compound; for concentration at which ionophore activity is displayed: DA-ZP1, comparison with known ionophores
Source text: A number of bispicolyl-based Zn^II-chelators were synthesized with increasing size at the ortho-position of phenolic OH by a one-step reductive amination between bispicolyl-amine and commercially available 3-substituted salicylaldehydes. Applicants examined the ionophore activity of bispicolyl analogs with methyl (Me, 2), isopropyl (iPr, 3), and tert-butyl (tBu, 4) substitutions (FIG. 1A). […] [13] The cells were first treated with ZnCl2 and ionophore candidates followed by DA-ZP1 treatment and fluorescence measurement.
Applicants experimentally determined the ionophore activity of these silyl-based compounds using the aforementioned DAZ-P1 assay in U2OS cells.
Applicants also determined metal-ion interference of the silyl-based ionophores with focused efforts on 8. Applicants designed a competition assay wherein Applicants pre-treated equimolar amounts of various metal ions, Mg^II, Ca^II, Mn^II, Fe^II, and Na^I, with 10 μM of Zn^II for 1 hour before treatment with DA-ZP1.
Finally, Applicants compared the activity of the designed compounds against known ionophores (FIGS. 2 and 11). […] [16]
In a 96-well plate, 20,000 U2OS cells were plated per well and cultured for 24 h in the incubator set to 37° C. with 5% CO2. […] The medium containing the compound was removed, and the cells were washed with 3×100 μL of fresh medium, and finally another 100 μL of 2 μM of DA-ZP1 was added to the corresponding cell culture medium containing HCS NuclearMask Blue Stain. The cells were again kept for 1 h in the incubator. The medium containing compound was removed, and the cells were washed with 1×100 μL of PBS and 2×100 μL of fresh medium, and finally, another 100 μL of fresh, dye-free medium was added. The cells were immediately imaged using a high-content fluorescence microscope (Operetta Phenix) in both the DAPI and FITC channels at 20× magnification. Images were analyzed using the Harmony software, and data were plotted using GraphPad Prism 9.

[4] = system: Staphylococcus epidermidis; assay: MIC, broth microdilution; format: cell-based
Source text: (§1) Next, Applicants evaluated the antibacterial activities of the ionophores. First, Applicants determined their minimum inhibitory concentration (MIC) in the gram-positive bacterium that causes hospital-acquired infections, Staphylococcus epidermidis.
(§2) Applicants reasoned that limiting extracellular zinc with EDTA would abolish ionophore activity by depleting the available metal ions for membrane transport. […] [24]
(§3) Staphylococcus epidermidis ATCC® 12228™, Staphylococcus caprae ATCC® 51549™, Bacillus subtilis ATCC® 6051™, and Bacillus cereus ATCC® 14579™ were grown in cation-adjusted Mueller-Hinton broth (CA-MHB) (catalog no. 90922, Sigma) as per the Clinical and Laboratory Standards Institute guidelines.2 Bacteria were routinely grown at 37° C. under aerobic conditions.
(§4) The MIC assay was performed according to the Clinical and Laboratory Standards Institute protocols.^3 The antibacterial activities of the compounds were measured using the broth microdilution method. Serial dilutions of compounds were prepared in cation-adjusted Müller Hinton Broth. Each dilution (100 μL) was dispensed to each well of a round-bottom plate to obtain final concentrations ranging from 0.07815-40 μM. Bacteria were grown at 37° C. overnight on cation-adjusted Müller Hinton Broth. The bacterial solution was prepared in 0.9% saline and adjusted to obtain an OD600=0.1 using a SpectraMax M5 (Molecular Devices). The resultant suspension was diluted 1:20 with cation-adjusted Müller Hinton Broth. The resulting mixture (10 μL) was added to each well of the plates (approximately 5×10^4 CFU/well), mixed, and incubated at 37° C. for 24 h. The MIC value was determined as the minimum concentration that inhibited the growth of bacteria.

Bacillus cereus = assay: MIC, broth microdilution; format: cell-based; settings: read-out: Strain MIC B. cereus
Protocol: as §1, §3, §4

Bacillus subtilis = assay: MIC, broth microdilution; format: cell-based; settings: read-out: Strain MIC B. subtilis
Protocol: as §1, §3, §4

Staphylococcus caprae = assay: MIC, broth microdilution; format: cell-based; settings: read-out: Strain MIC S. caprae
Protocol: as §1, §3, §4

U2OS cells [5] = assay: U2OS cell viability assay (CellTiter-Glo); format: cell-based; settings: Homo sapiens, 48 h, read-out: U2OS EC50 + 5 μM Zn^II
Protocol: as §2
U2OS cells were seeded in black 384-well plates at a density of 3,000 cells per well in 25 μL of medium per well. After seeding, the cells were left to adhere overnight. The compounds to be tested were added to the designated culture plates in 25 μL of medium in triplicate with a normalized DMSO concentration (0.05%) in all treatments, and the plates were placed at 37° C. in a humidified atmosphere containing 5% CO2. After 48 h, 40 μl of CellTiter-Glo (Promega) was added to each well and incubated for 30 min, after which the plate luminescence was analyzed in a PerkinElmer EnVision Manager 1.13 (PerkinElmer). The average growth of treated cells was calculated by correcting the values for background luminescence and was subsequently normalized to the average of the two lowest treatments of the compound in question. Data were plotted and fitted to a dose-response curve using GraphPad Prism 9.

[6] = system: S. epidermidis, S. caprae, B. subtilis, B. cereus; assay: Average MIC over the four gram-positive strains; format: cell-based
Protocol: as §1, §4

bacteria vs U2OS cells = assay: Antibacterial selectivity (average molar MIC in bacteria vs EC50 in U2OS cells); format: cell-based
[7] = value quoted for comparison; cited from earlier work

Oc1ccccc1CN(Cc1ccccn1)Cc1ccccn1 [Compound 1, 2-((bis(pyridin-2-ylmethyl)amino)methyl)phenol]
intracellular Zn^II level relative to DMSO (U2OS cells [1]): similar
logK (Zn^II binding) [2]: 12.5

CC(C)(C)c1cccc(CN(Cc2ccccn2)Cc2ccccn2)c1O [Compound 4, 2-((bis(pyridin-2-ylmethyl)amino)methyl)-6-(tert-butyl)phenol]
ionophore activity (Zn^II transport, DA-ZP1 fluorescence) (U2OS cells [3]): efficiently transported Zn^II
MIC ([4]; read-out: MIC): 7.2 µg/mL (≈ 19.9 µM)

CC(C)(C)c1ccc(O)c(CN(Cc2ccccn2)Cc2ccccn2)c1 [Compound 5, 2-((bis(pyridin-2-ylmethyl)amino)methyl)-4-(tert-butyl)phenol]
ionophore activity (Zn^II transport, DA-ZP1 fluorescence) (U2OS cells [3]): poor ionophore activity; also recorded: no ionophore activity
antibacterial activity ([4]; control compound): no ionophore activity in U2OS cells or antibacterial activity

C[Si](C)(C)c1cccc(CN(Cc2ccccn2)Cc2ccccn2)c1O [Compound 6, 2-((bis(pyridin-2-ylmethyl)amino)methyl)-6-(trimethylsilyl)phenol]
ionophore activity (DA-ZP1 fluorescence) (U2OS cells [3]): elicited detectable fluorescence
MIC ([4]; read-out: MIC): ~7.5 µg/mL (≈ 19.9 µM)

CC[Si](CC)(CC)c1cccc(CN(Cc2ccccn2)Cc2ccccn2)c1O [Compound 7, 2-((bis(pyridin-2-ylmethyl)amino)methyl)-6-(triethylsilyl)phenol]
MIC ([4]; read-out: MIC): ~8.4 µg/mL (≈ 20 µM)

CC(C)(C)[Si](c1ccccc1)(c1ccccc1)c1cccc(CN(Cc2ccccn2)Cc2ccccn2)c1O [Compound 10, 2-((bis(pyridin-2-ylmethyl)amino)methyl)-6-(tert-butyldiphenylsilyl)phenol]
ionophore activity (DA-ZP1 fluorescence) (U2OS cells [3]): decreased the activity
MIC ([4]; read-out: MIC): ~5.4 µg/mL (≈ 9.93 µM)

[O-][n+]1ccccc1S [Pyrithione, pyrithione, reference compound]
concentration at which ionophore activity is displayed (U2OS cells [3]): 5 µM
MIC [4]: 1.3 µg/mL (≈ 10.2 µM)
MIC ([4]; read-out: Strain MIC S. epidermidis): 1.3 µg/mL (≈ 10.2 µM)
MIC (Bacillus cereus): 1.3 µg/mL (≈ 10.2 µM)
MIC (Bacillus subtilis): 1.3 µg/mL (≈ 10.2 µM)
MIC (Staphylococcus caprae): 0.6 µg/mL (≈ 4.72 µM)
CC50 (U2OS cells [5]): 990 nM
MIC ([6]; read-out: Average MIC): 1.1 µg/mL
MIC ([6]; read-out: Average MIC (molar, in brackets)): 8.7 µM
MIC ([6]; read-out: average MIC): 1.1 µg/mL
antibacterial selectivity (bacteria vs U2OS cells): 0.11 times
selective toxicity to bacterial cells over mammalian cells (bacteria vs U2OS cells): 0.1 fold
antibacterial selectivity (bacteria vs U2OS cells; ratio of average molar MIC and U2OS EC50, Table 4): 0.11

c1ccc(CN(CCN(Cc2ccccn2)Cc2ccccn2)Cc2ccccn2)nc1 [TPEN, reference compound]
logK (Zn^II binding) of known chelator/ionophore [7]: 15.5

CNc1ccc2oc(C[C@H]3O[C@@]4(CC[C@H]3C)O[C@H]([C@H](C)C(=O)c3ccc[nH]3)[C@H](C)C[C@H]4C)nc2c1C(=O)O [calcimycin, reference compound]
MIC [4]: ~0.16 µg/mL (≈ 0.306 µM)

C[C@H](CCC(=O)O)C[C@H](C)C[C@H](C)C(=O)/C=C(\O)[C@H](C)C[C@H](C)C/C=C/[C@@H](C)[C@@H](O)[C@@H](C)[C@@H](O)C[C@@H]1CC[C@@](C)([C@H]2CC[C@@](C)([C@@H](C)O)O2)O1 [ionomycin, reference compound]
MIC [4]: 15 µg/mL (≈ 21.2 µM)

CC[C@@H](C(=O)O)[C@@H]1O[C@@H]([C@@H](C)[C@H](O)[C@H](C)C(=O)[C@H](CC)[C@H]2O[C@]3(C=C[C@@H](O)[C@]4(CC[C@@](C)([C@H]5CC[C@](O)(CC)[C@H](C)O5)O4)O3)[C@H](C)C[C@@H]2C)[C@@H](C)C[C@@H]1C [narasin, reference compound]
MIC ([4]; read-out: MIC): 0.96 µg/mL (≈ 1.25 µM)

CC(C)(C)n1ccn([BH-](n2ccn(C(C)(C)C)c2=S)n2ccn(C(C)(C)C)c2=S)c1=S.[K+] [potassium hydrotris(N-tert-butyl-2-thioimidazolyl) borate, reference compound]
concentration at which ionophore activity is displayed (U2OS cells [3]): 5 µM

CC[C@@H](C(=O)[C@@H](C)[C@@H](O)[C@H](C)[C@@H]1O[C@@H]([C@@H](CC)C(=O)O)CC[C@@H]1C)[C@H]1O[C@]2(C=C[C@@H](O)[C@]3(CC[C@@](C)([C@H]4CC[C@](O)(CC)[C@H](C)O4)O3)O2)[C@H](C)C[C@@H]1C [salinomycin, reference compound]
MIC [4]: 1.88 µg/mL (≈ 2.5 µM)

— patent US20250206704A1, “ENGINEERED IONOPHORES FOR TRANSPORT OF METAL IONS” (The Brigham and Women's Hospital, Inc., priority 2022, published 2025)
